# From ChEMBL document CHEMBL1144187, “Pharmacophore modeling and virtual screening for designing potential PLK1 inhibitors” (Bioorg Med Chem Lett, 2008)
# pIC50: −log10 of the molar value.
# Target: Serine/threonine-protein kinase PLK1 (Homo sapiens, UniProt P53350)
# Sequence (P53350 whole entry): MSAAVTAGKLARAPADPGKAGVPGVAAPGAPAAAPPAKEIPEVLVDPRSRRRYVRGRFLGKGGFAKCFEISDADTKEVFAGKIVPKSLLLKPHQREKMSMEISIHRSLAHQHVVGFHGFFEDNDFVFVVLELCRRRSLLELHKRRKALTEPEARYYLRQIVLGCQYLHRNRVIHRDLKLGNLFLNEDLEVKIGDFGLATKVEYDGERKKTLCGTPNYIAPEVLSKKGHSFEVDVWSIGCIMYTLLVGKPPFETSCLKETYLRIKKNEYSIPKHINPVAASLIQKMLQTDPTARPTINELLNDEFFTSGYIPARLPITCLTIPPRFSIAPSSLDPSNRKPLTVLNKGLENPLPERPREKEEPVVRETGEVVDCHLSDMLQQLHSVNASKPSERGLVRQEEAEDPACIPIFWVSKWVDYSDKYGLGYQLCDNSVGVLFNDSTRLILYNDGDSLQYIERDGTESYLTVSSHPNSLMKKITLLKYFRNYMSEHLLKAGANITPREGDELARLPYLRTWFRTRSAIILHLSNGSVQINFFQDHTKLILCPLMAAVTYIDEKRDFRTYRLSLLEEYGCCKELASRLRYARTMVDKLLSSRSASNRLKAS
row,SMILES,pIC50
1,FC(F)(F)c1ccc(Nc2nc(NCc3cccnc3)ncc2-c2nn[nH]n2)cc1,6.31
2,CCCN(CC1CC1)c1nc(NCc2ccc3c(c2)OCO3)ncc1C#N,5.80
3,CCOC(=O)/C(C#N)=c1\s/c(=C/Nc2ccccc2F)c(=O)n1CC,6.80
4,CC(C)(C)c1ccc(Nc2nc(NCc3cccnc3)ncc2-c2nn[nH]n2)cc1,6.02
5,c1csc(CCNc2ncc(-c3nnn[nH]3)c(Nc3ccc4c(c3)OCCO4)n2)c1,5.98
6,CCCN(CC1CC1)c1nc(NC(C)c2ccccc2)ncc1C#N (configuration not stated),6.26
7,C=CCOC(=O)/C(C#N)=C1\S[C@@H](CNc2ccc(NC(=O)NCCN3CCCC3)cc2)C(=O)N1CC,7.64
8,CC(Nc1ncc(C#N)c(N2CCc3ccccc3C2)n1)c1ccccc1 (configuration not stated),6.12
9,CC(=O)N(C)c1cccc(Nc2nc(NCCc3cccs3)ncc2-c2nn[nH]n2)c1,6.48
10,CC(Nc1ncc(C#N)c(OCC2CCCCO2)n1)c1ccccc1 (configuration not stated),5.80
11,O=C1C(C2=C3C(=Nc4ccccc43)/C(=C\c3ccc(O)cc3)C2=O)=C2C(=Nc3ccccc32)/C1=C\c1ccc(O)cc1,5.70
12,C#CNC(=O)/C(C#N)=c1\s/c(=C/Nc2ccc(OCCN(C)C)cc2)c(=O)n1CC,7.15
13,CCn1c(=O)/c(=C\Nc2ccc(OCCN(C)C)cc2)s/c1=C(/C#N)C(=O)NCC(F)F,7.13
14,CN1CCN(c2ccc(C(=O)Nc3[nH]nc4c3CN(C(=O)Cc3cccs3)C4)cc2)CC1,6.28
15,N[C@H](COc1cncc(-c2cc3ccncc3s2)c1)Cc1c[nH]c2ccccc12,5.00
16,CCOC(=O)/C(C#N)=c1\s/c(=C/Nc2ccc(NC(=O)COC)cc2)c(=O)n1CC,6.30
17,O=c1c(O)c(-c2ccc(O)c(O)c2)oc2cc(O)cc(O)c12 [QUERCETIN],4.19
